According to patent US12479838B2, “D3 receptor agonist compounds; methods of preparation; intermediates thereof; and methods of use thereof” (THE UNITED STATES OF AMERICA, AS REPRESENTED BY THE …, priority 2019, dated 2025):
Where two headings read alike, the source gives them in different places.

Tests used:
[1] = target: human D3R (Homo sapiens (Human), UniProt P35462); assay: Radioligand competition binding vs. [3H]-(R)-(+)-7-OH-DPAT, hD3R; conditions: vs. [3H]-(R)-(+)-7-OH-DPAT; for D4R/D3R / D2R/D3R: ratio of Ki; for D2R/D3R: D3R selectivity over D2R
[2] = target: human D2LR (Homo sapiens (Human), UniProt P14416); assay: Radioligand competition binding vs. [3H]-(R)-(+)-7-OH-DPAT, hD2R; conditions: vs. [3H]-(R)-(+)-7-OH-DPAT
[3] = target: hμOR (Homo sapiens (Human), UniProt P35372); assay: Off-target competition binding vs. [3H]-DAMGO, hμOR; conditions: read-out: hμOR Ki ± SEM
[4] = target: hD1R (Homo sapiens (Human), UniProt P21728); assay: Off-target competition binding vs. [3H]-SCH23390, hD1R; conditions: read-out: hD1R Ki ± SEM
[5] = target: human D4.4 (Homo sapiens (Human), UniProt P21917); assay: Radioligand competition binding vs. [3H]-(R)-(+)-7-OH-DPAT, hD4R; conditions: HEK293 cells stably expressing hD4R, read-out: D4R Ki ± SEM
[6] = target: hD2LR (Homo sapiens (Human), UniProt P14416); assay: Competition binding vs. antagonist [3H]-N-methylspiperone, D2R; conditions: read-out: hD2LR Ki ± SEM
[7] = target: hD3R (Homo sapiens (Human), UniProt P35462); assay: Competition binding vs. antagonist [3H]-N-methylspiperone, D3R; conditions: read-out: hD3R Ki ± SEM; vs. antagonist [3H]-N-methylspiperone
[8] = HEK293, read-out: hD3R Ki ± SEM
[9] = HEK293, read-out: hD2LR Ki ± SEM
[10] = vs. [3H]-DAMGO, HEK293 membranes, >100 = <50% inhibition at 100 μM
[11] = HEK293 cells stably expressing hD3R, read-out: D3R Ki ± SEM
[12] = HEK293 cells stably expressing hD2R, read-out: D2R Ki ± SEM

Sequence of hD3R (P35462 whole entry): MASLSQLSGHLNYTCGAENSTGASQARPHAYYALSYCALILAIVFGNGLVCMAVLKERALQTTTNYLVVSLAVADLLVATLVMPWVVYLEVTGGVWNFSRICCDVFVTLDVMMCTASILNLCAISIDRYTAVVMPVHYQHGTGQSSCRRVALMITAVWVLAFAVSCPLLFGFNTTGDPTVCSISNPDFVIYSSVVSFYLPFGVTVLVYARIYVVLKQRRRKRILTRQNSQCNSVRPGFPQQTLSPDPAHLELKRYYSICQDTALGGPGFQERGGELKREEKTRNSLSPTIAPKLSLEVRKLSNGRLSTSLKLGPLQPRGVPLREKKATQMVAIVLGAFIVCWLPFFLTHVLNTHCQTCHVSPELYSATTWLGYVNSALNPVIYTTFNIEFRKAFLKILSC
Sequence of human D3R (P35462 whole entry): as above
Sequence of hμOR (P35372 whole entry): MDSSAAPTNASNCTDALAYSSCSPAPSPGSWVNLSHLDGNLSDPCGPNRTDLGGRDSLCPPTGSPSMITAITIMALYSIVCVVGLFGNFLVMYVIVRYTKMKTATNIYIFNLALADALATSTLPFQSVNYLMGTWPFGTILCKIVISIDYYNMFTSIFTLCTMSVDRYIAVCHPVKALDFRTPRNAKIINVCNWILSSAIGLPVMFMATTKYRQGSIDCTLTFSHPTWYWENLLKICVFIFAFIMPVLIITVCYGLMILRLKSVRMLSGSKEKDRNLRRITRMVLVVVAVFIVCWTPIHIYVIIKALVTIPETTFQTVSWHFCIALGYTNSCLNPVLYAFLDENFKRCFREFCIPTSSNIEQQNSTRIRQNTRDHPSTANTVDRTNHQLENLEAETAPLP
Sequence of hD2LR (P14416 whole entry): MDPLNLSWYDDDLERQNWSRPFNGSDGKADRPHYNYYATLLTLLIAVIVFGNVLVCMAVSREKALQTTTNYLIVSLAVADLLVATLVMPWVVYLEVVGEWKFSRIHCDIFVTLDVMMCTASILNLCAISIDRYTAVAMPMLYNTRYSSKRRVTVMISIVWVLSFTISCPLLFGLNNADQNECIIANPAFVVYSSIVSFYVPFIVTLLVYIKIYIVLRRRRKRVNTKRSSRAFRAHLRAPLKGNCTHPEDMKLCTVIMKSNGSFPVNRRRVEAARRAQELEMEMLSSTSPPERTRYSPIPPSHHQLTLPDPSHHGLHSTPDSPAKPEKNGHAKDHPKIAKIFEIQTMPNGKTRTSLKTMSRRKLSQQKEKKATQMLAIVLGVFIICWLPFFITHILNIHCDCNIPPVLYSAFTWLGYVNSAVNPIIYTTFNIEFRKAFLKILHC
Sequence of human D2LR (P14416 whole entry): as above
Sequence of hD1R (P21728 whole entry): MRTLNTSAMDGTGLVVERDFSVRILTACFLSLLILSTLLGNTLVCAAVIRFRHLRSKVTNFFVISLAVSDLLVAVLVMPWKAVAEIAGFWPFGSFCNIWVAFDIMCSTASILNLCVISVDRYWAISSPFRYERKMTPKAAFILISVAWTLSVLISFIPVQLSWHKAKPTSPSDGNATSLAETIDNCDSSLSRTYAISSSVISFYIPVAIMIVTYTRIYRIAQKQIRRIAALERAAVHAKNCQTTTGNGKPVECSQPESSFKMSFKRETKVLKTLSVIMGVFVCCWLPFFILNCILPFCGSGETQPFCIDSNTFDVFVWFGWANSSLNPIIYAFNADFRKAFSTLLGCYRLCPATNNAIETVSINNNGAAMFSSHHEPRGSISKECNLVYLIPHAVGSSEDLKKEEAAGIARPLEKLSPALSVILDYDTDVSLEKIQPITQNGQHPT
Sequence of human D4.4 (P21917 whole entry): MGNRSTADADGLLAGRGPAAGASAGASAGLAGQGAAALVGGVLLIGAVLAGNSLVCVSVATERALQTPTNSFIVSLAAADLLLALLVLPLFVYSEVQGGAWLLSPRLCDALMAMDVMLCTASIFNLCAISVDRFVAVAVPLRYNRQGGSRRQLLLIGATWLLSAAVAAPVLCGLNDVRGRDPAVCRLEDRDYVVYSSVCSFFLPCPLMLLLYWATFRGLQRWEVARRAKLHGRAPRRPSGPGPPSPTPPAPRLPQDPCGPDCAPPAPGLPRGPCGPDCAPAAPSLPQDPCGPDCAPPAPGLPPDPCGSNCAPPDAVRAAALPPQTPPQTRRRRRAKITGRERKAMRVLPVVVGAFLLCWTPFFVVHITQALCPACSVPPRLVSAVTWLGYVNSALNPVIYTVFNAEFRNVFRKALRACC

Row | Compound | Ki [1, 11] | Ki [2, 12] | Ki [6] | Ki [7] | Ki [1, 8] | Ki [2, 9] | Ki [4] | Ki [3, 10] | further results
1 | O=C(NCCCCN1CCOC2c3cc(O)ccc3OC[C@@H]21)c1cc2ccccc2[nH]1 (stereo in doubt) [rel-cis-12] |  |  |  |  | 13.8 µM | 9.42 ± 3.44 µM | > 100 µM |  | Ki [3]: 12.3 ± 2.88 µM
2 | CCCN1CCO[C@@H]2c3cc(O)ccc3OC[C@H]21 [(+)-(4aR,10bR)-2, reference compound] |  |  |  |  | 0.00167 ± 0.000257 µM | 0.028 ± 0.00559 µM | > 100 µM | 36.6 ± 19.8 µM | 
3 | CCCN1CCO[C@H]2c3cc(O)ccc3OC[C@@H]21 [(−)-(4aS,10bS)-2, reference compound] |  |  |  |  | 5.62 µM | 7.58 ± 2.62 µM | > 100 µM | 77.9 ± 41.4 µM | loss of D3R affinity relative to (+)-(4aR,10bR)-2 [1]: > 3000 fold
4 | C[C@H]1COC(c2ccc(N)nc2)CN1CCCCOc1ccc2c(c1)NC(=O)CC2 (stereo partly drawn) [AB04-35, 7-(4-((5S)-2-(6-aminopyridin-3-yl)-5-methylmorpholino)butoxy)-3,4-dihydroquinolin-2(1H)-one] | 0.173 ± 0.0482 µM | 0.113 ± 0.0227 µM |  |  |  |  |  |  | D4R/D3R [1]: 18.6; D2R/D3R [1]: 0.653; Ki [5]: 3.22 µM
5 | CCCN(CCC)c1ccc(C2CN(CCC)[C@@H](C)CO2)cn1 (stereo partly drawn) [AB04-52, 5-((5S)-5-methyl-4-propylmorpholin-2-yl)-N,N-dipropylpyridin-2-amine] | 21.1 µM | 8.24 µM |  |  |  |  |  |  | D4R/D3R [1]: >4.74; D2R/D3R [1]: 0.391; Ki [5]: > 100 µM

Further lines, with some results ahead:

Row | Ki [1, 11] | Ki [2, 12] | Ki [6] | Ki [7] | Compound | Ki [1, 8] | Ki [2, 9] | Ki [4] | Ki [3, 10] | further results
6 | 2.01 µM | 1.84 µM | 7.93 ± 1.19 µM | 2.41 ± 0.287 µM | C[C@H]1CO[C@@H](c2ccc(N)nc2)CN1CC(=O)N1CCC(CNC(=O)c2cc3ccccc3[nH]2)C1 (stereo partly drawn) [AB07-80, N-((1-(2-((2S,5S)-2-(6-aminopyridin-3-yl)-5-methylmorpholino)acetyl)pyrrolidin-3-yl)methyl)-1H-indole-2-carboxamide] |  |  |  |  | 
7 |  |  | 32.3 ± 12.7 µM | 2.78 ± 1.02 µM | C[C@H]1CO[C@@H](c2ccc(N)nc2)CN1CCn1cc(CNC(=O)c2cc3ccccc3[nH]2)nn1 [AB08-03, N-((1-(2-((2S,5S)-2-(6-aminopyridin-3-yl)-5-methylmorpholino)ethyl)-1H-1,2,3-triazol-4-yl)methyl)-1H-indole-2-carboxamide] |  |  |  |  | 
8 | 0.423 ± 0.164 µM | 1.01 ± 0.162 µM |  |  | C[C@H]1CO[C@@H](c2ccc(N)nc2)CN1CC(O)CCNC(=O)c1cc2ccccc2[nH]1 (stereo partly drawn) [FOB02-67] |  |  |  | 0.739 ± 0.0701 µM | 
9 | 0.00741 ± 0.000323 µM | 0.0559 ± 0.00478 µM | 7.92 ± 0.772 µM | 0.104 ± 0.00765 µM | C[C@H]1CO[C@@H](c2ccc(N)nc2)CN1C/C=C1\CCC(CNC(=O)c2cc3ccccc3[nH]2)C1 (stereo partly drawn) [FOB04-02] |  |  |  |  | 
